Results from patent US12612412B2, “Antiviral heterocyclic compounds” (Enanta Pharmaceuticals, Inc., priority 2021, dated 2026).

Experiments:
[1] = test system: genotype A, "Long" strain RSV; assay: RSV-A assay (CPE protection in Hep-2 cells, ATPlite readout); assay type: cell-based, Human respiratory syncytial virus (HRSV); conditions: human respiratory syncytial virus, RSV-A Long strain, MOI 0.1, CPE protection, read-out: Human RSV-A (“Long”) EC50
Outline: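 Hep-2 cells (8,000/well) were treated with 2-fold serial compound dilutions in duplicate and infected with RSV at MOI 0.1. After 5 days, protection from cytopathic effect was measured as cell viability by ATPlite luminescence, and EC50 values were derived.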

[2] = test system: HMPV clinical isolate TN/1501/A1; assay: HMPV antiviral assay Method-B (clinical isolate TN/1501/A1 in LLC-MK2 cells, ATP-Lite readout); assay type: cell-based, Human metapneumovirus (HMPV); conditions: human metapneumovirus, LLC-MK2, 144 h, hMPV WT1501 (clinical isolate TN/1501/A1), 6 days
Outline: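 LLC-MK2 cells infected in suspension with TN/1501/A1 at MOI 0.014 in serum-free medium with 2 μg/mL TPCK-trypsin (final), incubated 6 days at 37° C. Compounds tested in duplicate, 10-point 3-fold dilutions from 10 μM. Cell health read by ATP-Lite luminescence, normalised to virus-only and cells-only controls; EC50 by four-parameter logistic fit.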

Compound	EC50 [1] [nM]	EC50 [2] [nM]
COc1ncc2cc(C(=O)NC[C@](O)(c3cc4c(c(-c5ccc(F)cc5)n3)OC[C@]4(C)C(N)=O)C(F)(F)F)cc(OC)c2n1 [Example 1143]	< 200	> 500
COc1ncc2cc(C(=O)NC[C@](O)(c3cc4c(c(-c5ccc(F)cc5)n3)OC[C@]4(C)C(N)=O)C3CC3)cc(OC)c2n1 [Example 1144]	< 200	> 500
COc1cc(C(=O)NC[C@](O)(c2cc3c(c(-c4cc(F)c(F)cc4F)n2)OC[C@]3(C)C(N)=O)C2CC2)cc2cn(C3CC3)nc12 [Example 1145]	< 200	< 500
COc1cc(C(=O)NC[C@](O)(c2cc3c(c(-c4cc(F)c(F)cc4F)n2)OC[C@]3(C)C(N)=O)C2CC2)cc2cn(C3(F)CC3)nc12 [Example 1147]	< 200	< 500
C[C@]1(C(N)=O)COc2c1cc([C@@](O)(CNC(=O)c1cc(Cl)c3nn(C4CC4)cc3c1)C1CC1)nc2-c1cc(F)c(F)cc1F [Example 1148]	< 200	< 500
COc1cc(C(=O)NC[C@](O)(c2cc3c(c(-c4cc(F)c(F)cc4F)n2)OC[C@]3(C)C(N)=O)C2CC2)cc2cc(Br)c(C)nc12 [Example 1150]	< 200	< 500
COc1cc(C(=O)NC[C@](O)(c2cc3c(c(-c4cc(Cl)c(F)cc4F)n2)OC[C@]3(C)C(N)=O)C2CC2)cc2cc(Br)c(C)nc12 [Example 1154]	< 200	< 500
COc1cc(C(=O)NC[C@](O)(c2cc3c(c(-c4c(F)cc(Cl)cc4F)n2)OC[C@]3(C)C(N)=O)C2CC2)cc2cn(C3CC3)nc12 [Example 1155]	< 200	< 500
COc1cc(C(=O)NC[C@](O)(c2cc3c(c(-c4c(F)cc(Cl)cc4F)n2)OC[C@]3(C)C(N)=O)C2CC2)cc2cn(C(F)F)nc12 [Example 1156]	< 200	< 500
COc1cc(C(=O)NC[C@](O)(c2cc3c(c(-c4c(F)cc(Cl)cc4F)n2)OC[C@]3(C)C(N)=O)C2CC2)cc2cn(C3(F)CC3)nc12 [Example 1157]	< 200	< 500
C[C@]1(C(N)=O)COc2c1cc([C@@](O)(CNC(=O)c1cc(Cl)c3nn(C4CC4)cc3c1)C1CC1)nc2-c1c(F)cc(Cl)cc1F [Example 1158]	< 200	< 500

More lines, now with the values ahead:

EC50 [1] [nM]	EC50 [2] [nM]	Compound
< 200	< 500	C[C@]1(C(N)=O)COc2c1cc([C@@](O)(CNC(=O)c1ccc3nn(C4CC4)cc3c1)C(F)(F)F)nc2-c1cc(F)c(F)cc1F [Example 1139]
< 200	< 500	COc1cc(C(=O)NC[C@](O)(c2cc3c(c(-c4cc(F)c(F)cc4F)n2)OC[C@]3(C)C(N)=O)C(F)(F)F)cc2cc(Cl)c(C)nc12 [Example 1140]
< 200	< 500	Cc1cnc2c(Cl)cc(C(=O)NC[C@](O)(c3cc4c(c(-c5cc(F)c(F)cc5F)n3)OC[C@]4(C)C(N)=O)C(F)(F)F)cc2c1 [Example 1141]
< 200	< 500	Cc1cnc2c(OC(F)F)cc(C(=O)NC[C@](O)(c3cc4c(c(-c5cc(F)c(F)cc5F)n3)OC[C@]4(C)C(N)=O)C(F)(F)F)cc2c1 [Example 1142]
< 200	< 500	COc1cc(C(=O)NC[C@](O)(c2cc3c(c(-c4cc(F)c(F)cc4F)n2)OC[C@]3(C)C(N)=O)C2CC2)cc2cn(C(F)F)nc12 [Example 1146]
< 200	< 500	COc1cc(C(=O)NC[C@](O)(c2cc3c(c(-c4cc(F)c(F)cc4F)n2)OC[C@]3(C)C(N)=O)C2CC2)cc2cc(Br)cnc12 [Example 1149]
< 200	< 500	COc1cc(C(=O)NC[C@](O)(c2cc3c(c(-c4cc(F)c(F)cc4F)n2)OC[C@]3(C)C(N)=O)C2CC2)cc2cc(Cl)c(C)nc12 [Example 1151]
< 200	< 500	Cc1cnc2c(Cl)cc(C(=O)NC[C@](O)(c3cc4c(c(-c5cc(F)c(F)cc5F)n3)OC[C@]4(C)C(N)=O)C3CC3)cc2c1 [Example 1153]
